Source: patent publication US20090270497A1, “Treatment of Non-Localized Inflammation with pan-HDAC Inhibitors” (PHARMACYCLICS, INC., priority 2008, published 2009)

Legend:
[1] = test system: Class I and Class II HDAC isoforms; test: HDAC isoform inhibition (all Class I and Class II); assay type: biochemical
[2] = test system: inducible nitric oxide synthase (iNOS); test: iNOS expression by Western blot in LPS-treated RAW cells; assay type: cell-based; settings: various amounts for 30 min, LPS 100 ng/ml 16 hours
Method: Cell lysates were analyzed by Western blot with antibodies to the inducible nitric oxide synthase (iNOS) (above) and HuR (below) as a negative control. […] (FIG. 3).

[3] = test system: sepsis by treatment with LPS; test: Survival after induction of sepsis by LPS (endotoxemia); assay type: in vivo
Method: At 72 hours after induction of sepsis by treatment with LPS, a subject has a 0% chance of survival. […] This remains constant through 144 hours.
Culture media was collected and analyzed by ELISA for TNFα, IL-1β and IL-6 proteins (n=3±S.D.). […] (FIG. 4).

[4] = test system: RAW cells; test: Cytokine mRNA expression by RT-PCR in LPS-treated RAW cells; assay type: cell-based; settings: 0.1 μM for 30 min, then 100 ng/ml LPS 6 hours
Method: RT-PCR was performed (30 cycles), and PCR products were analyzed on a 1% agarose gel. […] (FIG. 1)

[5] = test system: RAW cells; test: Secreted cytokine protein by ELISA in LPS-treated RAW cells; assay type: cell-based; settings: 0.1 μM for 30 min, LPS 100 ng/ml for 16 hr
Source text: Culture media was collected and analyzed by ELISA for TNFα, IL-1β and IL-6 proteins (n=3±S.D.). […] (FIG. 2).

CN(C)Cc1c(C(=O)NCCOc2ccc(C(=O)NO)cc2)oc2ccccc12 [Compound 1]
inhibition of all Class I and Class II HDAC isoforms [1]: inhibits all Class I and Class II HDAC isoforms
iNOS expression [2]: decreases in a dose-dependant manner
chances of survival ([3]; 25 μg/gram of body weight, at 72 hours after LPS, steady through 144 hours): 30%
chances of survival ([3]; 50 μg/gram of body weight, constant through 144 hours after LPS): 70%
increase of survival from endotoxemia ([3]; FIG. 4 legend, dose not stated): 70%
RNA level of IL-1β [4]: decreased
RNA level of IL-6 [4]: decreased
RNA level of TNF [4]: decreased
IL-1β protein in culture media [5]: decreases
IL-6 protein in culture media [5]: decreases
TNFα protein in culture media [5]: decreases
